Test results taken from publication PMC9862096, “Interaction of a Homologous Series of Amphiphiles with P-glycoprotein in a Membrane Environment—Contributions of Polar and Non-Polar Interactions” (Pharmaceutics, 2023).

What was measured:
[1] = Association (partition) of the NBD amphiphiles with native membranes, NBD fluorescence; assay type: physicochemical, High-Five insect cells; conditions: for LogKP, association with the native membranes: 37 °C, simplified ATPase assay buffer; for KPW→M: aqueous phase to native membrane
Procedure: (§1) The membranes were diluted to the chosen concentration with simplified ATPase assay buffer and warmed to 37 °C. The NBD amphiphiles were added from stocks in DMSO (final DMSO 1% v/v) by squirting the required volume into the membrane solution under gentle vortex. Fluorescence intensity was measured after 15 to 30 min incubation at 37 °C using a Cary Eclipse spectrofluorimeter (Varian, Singapore). The path length of the sample container was selected to guarantee that scattering at the excitation wavelength was smaller than 0.1 while maintaining a good signal/noise ratio (3, 5, or 10 mm).
(§2) The increase in fluorescence of the NBD amphiphiles when associated with the model membranes was well described by a simple partition (Equation (S3)). The low affinity of the less lipophilic amphiphiles for the native membranes required the use of high membrane concentrations, and the fluorescence was measured with the plate reader SpectraMax iD5 (Molecular Devices, Berkshire, UK), where the reading setup is not very sensitive to scatter. To guarantee that the high scatter intensity was not leading to artifacts in the measured fluorescence intensity of NBD–C4, titrations of NBD-C6 and NBD–C8 were also performed in the same plate. For these two latter amphiphiles, the results obtained for the partition coefficient were similar to those obtained for experiments with low scatter intensity. A small decrease in the fluorescence intensity from NBD–C8 was nevertheless observed at very high scatter intensities (OD ≥ 0.5), which was used to correct the signal from the less lipophilic amphiphiles, see Supplementary Information (Figure S5 and Equation (S4)). The molar volume considered for the lipid was 0.8 dm^3/mol, and 1.2 g/mL was considered for the density of the membrane proteins.
S3 – Partition of the NBD amphiphiles to lipid bilayers and native membranes The fluorescence increase that accompanies the association of the NBD amphiphiles with the model membra nes was well defined by a simple partition, equation S3. […]
where IfW and If M are respec ti vel y the fluorescence intensity when all fluorescent amphiphile is in the aqueous phase and ass oci ated with the membranes, LbK is the partition co eff icient P between the aqueous and the lipid bilayer, V is the molar vo l u m e of the lipid when in the lipid L bi l ayer, and [L] is the lipid concentration.
To characterize the association of the NBD amphiphiles with the native membranes the whole membrane vo lume was considere d, including the lipid bilayer and the membrane proteins. For the ca se of the less lipophilic amphiphiles NBD‐C4 and NBD‐C6, a sig nif ica nt scatter from the […]
both to the larger size of the vesicles (ca 1 µm diameter, [1]) and to the high refractive index of the native membranes. The magnitude of the scatter effect was quantified through the best fit […]
partition to the membranes at co n ce ntrations where scatter is not significant. The modified […]
where s is the scatter correction factor for a given concentration of native membranes, If W and IfM are respectively the fluorescence intensity when all fluorescent amphiphile is in the aqueous phase and associated with the membranes, WMK → is the partition coefficient between the P aqueous phase and the native membrane, V is the molar volume of the lipid when in the L membrane and [L] the molar concentration of the membrane lipids, V is the vo lume occupied P by 1 g of membrane protein (assuming a density of 1.2 g/mL) and [P] is the protein concentration in units of ma ss per volume.
Typical results obtained for the variation of the fluorescence intensity at 540 nm of the NBD‐Cn fluorophores equilibrated with increasing concentrations of native membranes, are shown in figure S3. The fluorescence intensity was measured in black 96 well plates with the plate reader […]
SpectraMax iD5. The NBD‐Cn concentrations we re 0.5 µM for NBD‐C8 , 1 µM for NBD‐C6, and 2 µM for NBD‐C4, and the total volume per well was 150 µL. […]

[2] = system: P–gp; assay: Partition coefficient to membrane protein from Equations (1) and (2), binding to P–gp only; assay type: physicochemical, mouse; conditions: binding to the protein P–gp only; for KPW→P: aqueous phase to protein; for KPLb→P: lipid bilayer to protein
Source text: (§3) From the partition coefficient obtained for the native membranes, KPW→M , and that for the model lipid bilayers, KPW→Lb , one can calculate the partition coefficient between the aqueous phase and the proteins in the membrane, KPW→P , and from the lipid bilayer to the proteins, KPLb→P , Equations (1) and (2), [40]. (1) KPW→M VM=KPW→PVP+KPW→Lb VLb (2) KPLb→P=KPW→P/KPW→Lb
(§4) In Equation (1) it is necessary to include the volume occupied by the proteins, and the values obtained will, therefore, depend on whether it is considered that the amphiphile may interact with all proteins in the membrane or with P–gp only.

[3] = target: T1, mouse P–gp (mP–gp) (Mus musculus, UniProt P21447); assay: P–gp ATPase activity (vanadate-sensitive, end point Pi release) in native membranes; assay type: biochemical; conditions: Equation (S1), total modulator concentration; only activation for NBD–C4; constraint K1≤K2 for NBD–C8 and NBD–LysoMPE; [75% confidence interval]; read-out: K1, dissociation constant for P–gp activation
T1 construct: made in house; host or cells: High-Five insect cells (Invitrogen), recombinant baculovirus; total membrane vesicles

[4] = Partition coefficient to membrane proteins from Equations (1) and (2), all membrane proteins with equal affinity; assay type: physicochemical, High-Five insect cells; conditions: binding to all membrane proteins with equal affinity; for KPW→P: aqueous phase to proteins; for KPLb→P: lipid bilayer to proteins
Source text: as §3, §4

[5] = Association (partition) with model membranes (LUVs POPE:POPC:POPS 45:35:20); assay type: physicochemical; conditions: aqueous phase to model lipid bilayer
Procedure: The model membranes with a phospholipid composition representative of that of the native membranes (POPE:POPC:POPS 45:35 20) were prepared from stock solutions of the required lipids in chloroform or in chloroform/methanol (87/13, v/v), as described before. The solvent-free lipid residue was hydrated at 40 °C with previously heated simplified ATPase assay buffer (with all components except Ouabain and DTT). Large Unilamelar Vesicles were prepared by extrusion through two-staked polycarbonate filters (100 nm pore diameter), and the size of the LUVs was analyzed by dynamic light scattering (Zetasizer Nano ZS, Malvern, UK) being close to the filter pore size.
as §1, §2
S3 – Partition of the NBD amphiphiles to lipid bilayers and native membranes
The fluorescence increase that accompanies the association of the NBD amphiphiles with the
model membra nes was well defined by a simple partition, equation S3.
If 1540 nm Lb= + S3, KVL[]
where IfW and If M are respec ti vel y the fluorescence intensity when all fluorescent amphiphile is
in the aqueous phase and ass oci ated with the membranes, LbK is the partition co eff icient P
between the aqueous and the lipid bilayer, V is the molar vo l u m e of the lipid when in the lipid L
bi l ayer, and [L] is the lipid concentration. […]

[6] = cited from earlier work
[7] = membrane volume = phospholipid bilayer and P–gp (binding to the protein P–gp only)
[8] = membrane volume = phospholipid bilayer and all proteins (binding to all membrane proteins with equal affinity)
[9] = section: binding to all membrane proteins with equal affinity
[10] = section: binding to the protein P–gp only

T1 sequence (P21447 whole entry): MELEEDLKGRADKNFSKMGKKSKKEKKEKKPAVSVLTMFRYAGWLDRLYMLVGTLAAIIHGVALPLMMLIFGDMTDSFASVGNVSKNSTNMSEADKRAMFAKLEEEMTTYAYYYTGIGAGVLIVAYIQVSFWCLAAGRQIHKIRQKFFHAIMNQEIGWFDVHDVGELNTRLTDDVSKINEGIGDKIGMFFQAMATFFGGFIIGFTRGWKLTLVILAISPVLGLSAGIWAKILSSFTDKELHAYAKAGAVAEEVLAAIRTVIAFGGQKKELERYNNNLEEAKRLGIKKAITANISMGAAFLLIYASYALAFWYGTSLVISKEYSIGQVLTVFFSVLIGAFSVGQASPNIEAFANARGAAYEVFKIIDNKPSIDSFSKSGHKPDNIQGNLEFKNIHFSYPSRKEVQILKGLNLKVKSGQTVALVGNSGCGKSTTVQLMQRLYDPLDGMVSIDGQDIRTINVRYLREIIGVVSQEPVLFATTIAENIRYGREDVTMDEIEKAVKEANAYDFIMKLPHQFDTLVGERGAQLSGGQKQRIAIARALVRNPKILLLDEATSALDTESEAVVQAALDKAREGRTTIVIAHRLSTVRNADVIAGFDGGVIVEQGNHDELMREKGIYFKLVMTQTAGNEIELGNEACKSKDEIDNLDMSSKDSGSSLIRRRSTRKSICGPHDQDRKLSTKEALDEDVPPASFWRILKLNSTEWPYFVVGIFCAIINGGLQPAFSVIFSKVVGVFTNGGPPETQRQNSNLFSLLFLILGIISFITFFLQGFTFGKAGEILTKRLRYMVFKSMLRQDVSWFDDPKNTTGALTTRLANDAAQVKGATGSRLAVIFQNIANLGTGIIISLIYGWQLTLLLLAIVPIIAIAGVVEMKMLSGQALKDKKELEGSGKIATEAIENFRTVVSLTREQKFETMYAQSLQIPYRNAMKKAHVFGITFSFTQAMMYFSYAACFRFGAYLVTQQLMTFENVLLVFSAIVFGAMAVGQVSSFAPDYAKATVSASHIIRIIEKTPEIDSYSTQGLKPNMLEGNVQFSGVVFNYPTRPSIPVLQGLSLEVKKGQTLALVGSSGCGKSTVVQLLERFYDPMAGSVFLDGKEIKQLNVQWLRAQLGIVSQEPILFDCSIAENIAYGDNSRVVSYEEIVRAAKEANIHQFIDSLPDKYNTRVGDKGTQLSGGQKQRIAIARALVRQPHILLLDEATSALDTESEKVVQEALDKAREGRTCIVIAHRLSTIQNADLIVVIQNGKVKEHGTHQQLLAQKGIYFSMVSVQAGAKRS

## CCCCNc1ccc([N+](=O)[O-])c2nonc12 [NBD–C4]
[1]
  LogKP, association with the native membranes: 2.75 ± 0.20
[1]; [7]
  KPW→M: 1.4 × 10^3
[1]; [8]
  KPW→M: 5.7 × 10^2
[2]
  KPW→P: 6.9 × 10^4
  KPLb→P: 176
[3]
  Kd: 84 µM
[4]
  KPW→P: 6.9 × 10^2
  KPLb→P: 1.8
[5]; [9]
  KPW→Lb: 3.9 × 10^2
[5]; [10]
  KPW→Lb: 3.9 × 10^2

## CCCCCCCCNc1ccc([N+](=O)[O-])c2nonc12 [NBD–C8]
[6]; Section 3.4 and ref 77
  time for equilibration between both membrane leaflets (translocation): within a few seconds
[1]
  LogKP, association with the native membranes: 3.95 ± 0.14
[1]; [7]
  KPW→M: 2.2 × 10^4
[1]; [8]
  KPW→M: 9.0 × 10^3
[2]
  KPW→P: 2.3 × 10^5
  KPLb→P: 12
[3]
  Kd: 17 µM
[4]
  KPW→P: 2.3 × 10^3
  KPLb→P: 0.12
[5]; [9]
  KPW→Lb: 1.9 × 10^4
[5]; [10]
  KPW→Lb: 1.9 × 10^4

## CCCCCCCCCCCCCC(=O)OCC(O)COP(=O)(O)OCCNc1ccc([N+](=O)[O-])c2nonc12 (stereo not drawn) [NBD–LysoMPE]
[6]
  characteristic time of translocation between membrane leaflets: several hours
[1]
  LogKP, association with the native membranes: 4.34 ± 0.25
[3]
  Kd: 13 µM
